Activity calls are given as the source filed them. The calls are words filed in the database; no cut-off is given here.
Assays:
MDCK = assay: Cytotoxicity against dog MDCK cells assessed as reduction in cell viability at 100 uM incubated for 40 hrs by celltiter-glo assay; type: toxicity, cell-based, Canis lupus familiaris
Influenza A virus [1] = assay: Antiviral activity against Influenza A virus A/WSN/33(H1N1) infected in female BALB/c kunming mouse assessed as reduction in severe pneumonia at 10 mg/kg/day, administered intranasally once per day for 7 days starting from 24 hrs post-viral infection and measured daily; type: functional, organism-based; details: time 7.0 day
[2] = Selectivity index, ratio of CC50 for dog MDCK cells to IC50 for influenza A virus A/WSN/33(H1N1) infected in MDCK cells; type: toxicity, cell-based; details: read-out: Selectivity Index
Influenza A virus [3] = assay: Antiviral activity against Influenza A virus A/WSN/33(H1N1) infected in female BALB/c kunming mouse assessed as reduction in lung index at 12.5 mg/kg/day, administered intranasally once per day for 7 days starting from 24 hrs post-viral infection and measured daily; type: functional; details: time 7 day
[4] = Cytotoxicity against dog MDCK cells assessed as reduction in cell viability incubated for 40 hrs by celltiter-glo assay; type: toxicity, cell-based, Canis lupus familiaris
Influenza A virus [5] = assay: Antiviral activity against Influenza A virus H1N1 infected in MDCK cells assessed as inhibition of viral growth at 100 uM relative to control; type: functional
Influenza A virus [6] = assay: Antiviral activity against influenza A virus A/WSN/33(H1N1) infected in MDCK cells assessed as inhibition of viral-induced cytopathic effect pretreated with cells followed by viral infection and measured after 40 hrs by fluorescence based microplate reader analysis; type: functional, organism-based
Influenza A virus [7] = assay: Antiviral activity against Influenza A virus A/WSN/33(H1N1) infected in female BALB/c kunming mouse assessed as reduction in immune cell infiltration at 10 mg/kg/day, administered intranasally once per day for 7 days starting from 24 hrs post-viral infection and measured daily; type: functional, organism-based; details: time 7.0 day

| Compound | Activity (MDCK) | Activity (Influenza A virus [1]) | selectivity ratio [2] | Activity_index (Influenza A virus [3]) | CC50 at 40 h [4] [µM] | inhibition at 100 µM (Influenza A virus [5]) [%] | IC50 (Influenza A virus [6]) [µM] | Activity (Influenza A virus [7]) |
| --- | --- | --- | --- | --- | --- | --- | --- | --- |
| CC1(C)CC[C@]2(C(=O)NCc3cn([C@@H]4O[C@H](CO)[C@@H](O)[C@H](O)[C@H]4O)nn3)CC[C@]3(C)C(=CC[C@@H]4[C@@]5(C)CC[C@H](O)C(C)(C)[C@@H]5CC[C@]43C)[C@@H]2C1 | Non-toxic | Active | > 73.5 | 1.4 | > 100 | > 75 | 1.36 | Active |
| CC(=O)OC[C@H]1O[C@@H](n2cc(CNC(=O)[C@]34CCC(C)(C)C[C@H]3C3=CC[C@@H]5[C@@]6(C)CC[C@H](OC(=O)NCCc7cn(Cc8cc(Cn9cc(CCNC(=O)O[C@H]%10CC[C@]%11(C)[C@H]%12CC=C%13[C@@H]%14CC(C)(C)CC[C@]%14(C(=O)NCc%14cn([C@@H]%15O[C@H](COC(C)=O)[C@@H](OC(C)=O)[C@H](OC(C)=O)[C@H]%15OC(C)=O)nn%14)CC[C@@]%13(C)[C@]%12(C)CC[C@H]%11C%10(C)C)nn9)cc(Cn9cc(CCNC(=O)O[C@H]%10CC[C@]%11(C)[C@H]%12CC=C%13[C@@H]%14CC(C)(C)CC[C@]%14(C(=O)NCc%14cn([C@@H]%15O[C@H](COC(C)=O)[C@@H](OC(C)=O)[C@H](OC(C)=O)[C@H]%15OC(C)=O)nn%14)CC[C@@]%13(C)[C@]%12(C)CC[C@H]%11C%10(C)C)nn9)c8)nn7)C(C)(C)[C@@H]6CC[C@@]5(C)[C@]3(C)CC4)nn2)[C@H](OC(C)=O)[C@@H](OC(C)=O)[C@@H]1OC(C)=O | Non-toxic |  | > 8.55 |  | > 100 | > 75 | 46.8 |  |
| CC(=O)OC[C@H]1O[C@@H](n2cc(CNC(=O)[C@]34CCC(C)(C)C[C@H]3C3=CC[C@@H]5[C@@]6(C)CC[C@H](OC(=O)NCCCc7cn(Cc8cc(Cn9cc(CCCNC(=O)O[C@H]%10CC[C@]%11(C)[C@H]%12CC=C%13[C@@H]%14CC(C)(C)CC[C@]%14(C(=O)NCc%14cn([C@@H]%15O[C@H](COC(C)=O)[C@@H](OC(C)=O)[C@H](OC(C)=O)[C@H]%15OC(C)=O)nn%14)CC[C@@]%13(C)[C@]%12(C)CC[C@H]%11C%10(C)C)nn9)cc(Cn9cc(CCCNC(=O)O[C@H]%10CC[C@]%11(C)[C@H]%12CC=C%13[C@@H]%14CC(C)(C)CC[C@]%14(C(=O)NCc%14cn([C@@H]%15O[C@H](COC(C)=O)[C@@H](OC(C)=O)[C@H](OC(C)=O)[C@H]%15OC(C)=O)nn%14)CC[C@@]%13(C)[C@]%12(C)CC[C@H]%11C%10(C)C)nn9)c8)nn7)C(C)(C)[C@@H]6CC[C@@]5(C)[C@]3(C)CC4)nn2)[C@H](OC(C)=O)[C@@H](OC(C)=O)[C@@H]1OC(C)=O | Non-toxic |  | > 15.6 |  | > 100 | > 75 | 6.39 |  |
| CC1(C)CC[C@]2(C(=O)NCc3cn([C@@H]4O[C@H](CO)[C@@H](O)[C@H](O)[C@H]4O)nn3)CC[C@]3(C)C(=CC[C@@H]4[C@@]5(C)CC[C@H](OC(=O)NCc6cn(CC(CO)(Cn7cc(CNC(=O)O[C@H]8CC[C@]9(C)[C@H]%10CC=C%11[C@@H]%12CC(C)(C)CC[C@]%12(C(=O)NCc%12cn([C@@H]%13O[C@H](CO)[C@@H](O)[C@H](O)[C@H]%13O)nn%12)CC[C@@]%11(C)[C@]%10(C)CC[C@H]9C8(C)C)nn7)Cn7cc(CNC(=O)O[C@H]8CC[C@]9(C)[C@H]%10CC=C%11[C@@H]%12CC(C)(C)CC[C@]%12(C(=O)NCc%12cn([C@@H]%13O[C@H](CO)[C@@H](O)[C@H](O)[C@H]%13O)nn%12)CC[C@@]%11(C)[C@]%10(C)CC[C@H]9C8(C)C)nn7)nn6)C(C)(C)[C@@H]5CC[C@]43C)[C@@H]2C1 | Non-toxic |  | > 14.5 |  | > 100 | > 75 | 6.91 |  |
| CC(=O)OC[C@H]1O[C@@H](n2cc(CNC(=O)[C@]34CCC(C)(C)C[C@H]3C3=CC[C@@H]5[C@@]6(C)CC[C@H](OC(=O)NCCCCCc7cn(Cc8cc(Cn9cc(CCCCCNC(=O)O[C@H]%10CC[C@]%11(C)[C@H]%12CC=C%13[C@@H]%14CC(C)(C)CC[C@]%14(C(=O)NCc%14cn([C@@H]%15O[C@H](COC(C)=O)[C@@H](OC(C)=O)[C@H](OC(C)=O)[C@H]%15OC(C)=O)nn%14)CC[C@@]%13(C)[C@]%12(C)CC[C@H]%11C%10(C)C)nn9)cc(Cn9cc(CCCCCNC(=O)O[C@H]%10CC[C@]%11(C)[C@H]%12CC=C%13[C@@H]%14CC(C)(C)CC[C@]%14(C(=O)NCc%14cn([C@@H]%15O[C@H](COC(C)=O)[C@@H](OC(C)=O)[C@H](OC(C)=O)[C@H]%15OC(C)=O)nn%14)CC[C@@]%13(C)[C@]%12(C)CC[C@H]%11C%10(C)C)nn9)c8)nn7)C(C)(C)[C@@H]6CC[C@@]5(C)[C@]3(C)CC4)nn2)[C@H](OC(C)=O)[C@@H](OC(C)=O)[C@@H]1OC(C)=O | Non-toxic |  | > 1.89 |  | > 100 | > 75 | 52.9 |  |
| CC(=O)OC[C@H]1O[C@@H](n2cc(CNC(=O)[C@]34CCC(C)(C)C[C@H]3C3=CC[C@@H]5[C@@]6(C)CC[C@H](OC(=O)NCCc7cn(CC(CO)(Cn8cc(CCNC(=O)O[C@H]9CC[C@]%10(C)[C@H]%11CC=C%12[C@@H]%13CC(C)(C)CC[C@]%13(C(=O)NCc%13cn([C@@H]%14O[C@H](COC(C)=O)[C@@H](OC(C)=O)[C@H](OC(C)=O)[C@H]%14OC(C)=O)nn%13)CC[C@@]%12(C)[C@]%11(C)CC[C@H]%10C9(C)C)nn8)Cn8cc(CCNC(=O)O[C@H]9CC[C@]%10(C)[C@H]%11CC=C%12[C@@H]%13CC(C)(C)CC[C@]%13(C(=O)NCc%13cn([C@@H]%14O[C@H](COC(C)=O)[C@@H](OC(C)=O)[C@H](OC(C)=O)[C@H]%14OC(C)=O)nn%13)CC[C@@]%12(C)[C@]%11(C)CC[C@H]%10C9(C)C)nn8)nn7)C(C)(C)[C@@H]6CC[C@@]5(C)[C@]3(C)CC4)nn2)[C@H](OC(C)=O)[C@@H](OC(C)=O)[C@@H]1OC(C)=O | Non-toxic |  | > 9.69 |  | > 100 | > 75 | 10.3 |  |
| CC(=O)OC[C@H]1O[C@@H](n2cc(CNC(=O)[C@]34CCC(C)(C)C[C@H]3C3=CC[C@@H]5[C@@]6(C)CC[C@H](OC(=O)NCCCCCc7cn(CC(CO)(Cn8cc(CCCCCNC(=O)O[C@H]9CC[C@]%10(C)[C@H]%11CC=C%12[C@@H]%13CC(C)(C)CC[C@]%13(C(=O)NCc%13cn([C@@H]%14O[C@H](COC(C)=O)[C@@H](OC(C)=O)[C@H](OC(C)=O)[C@H]%14OC(C)=O)nn%13)CC[C@@]%12(C)[C@]%11(C)CC[C@H]%10C9(C)C)nn8)Cn8cc(CCCCCNC(=O)O[C@H]9CC[C@]%10(C)[C@H]%11CC=C%12[C@@H]%13CC(C)(C)CC[C@]%13(C(=O)NCc%13cn([C@@H]%14O[C@H](COC(C)=O)[C@@H](OC(C)=O)[C@H](OC(C)=O)[C@H]%14OC(C)=O)nn%13)CC[C@@]%12(C)[C@]%11(C)CC[C@H]%10C9(C)C)nn8)nn7)C(C)(C)[C@@H]6CC[C@@]5(C)[C@]3(C)CC4)nn2)[C@H](OC(C)=O)[C@@H](OC(C)=O)[C@@H]1OC(C)=O | Non-toxic |  | > 4.02 |  | > 100 | > 75 | 24.9 |  |
